These molecules were tested against Matrix protein 2 (Influenza A virus (A/Udorn/307/1972(H3N2)), UniProt P0DOF8, V27A).

SMILES	IC50
C1=C[C@H]2[C@H]3[C@H]4[C@@H]1[C@@H]1[C@H]2[C@@H]2[C@H]3[C@@H]3CNC[C@@H]3[C@H]4[C@H]12	185 µM
C1C[C@H]2[C@H]3[C@H]4[C@@H]1[C@@H]1[C@H]2[C@@H]2[C@H]3[C@@H]3CNC[C@@H]3[C@H]4[C@H]12	17.2 µM
N=C(N)N1C[C@@H]2[C@H](C1)[C@@H]1[C@@H]3[C@H]4CC[C@H]5[C@@H]3[C@H]2[C@H]2[C@@H]5[C@@H]4[C@@H]12	32.2 µM
